Experimental data taken from ChEMBL document CHEMBL1140985, “Expanding the repertoire of small molecule transcriptional activation domains” (Bioorg Med Chem, 2009).

Tests used:
Glucocorticoid receptor = target: T1, Glucocorticoid receptor (Homo sapiens, UniProt P04150); test: Transcriptional activation of Gal4(1-147) tagged glucocorticoid receptor in human HeLa cells by luciferase reporter gene assay relative to OxDex-AEEA; format: cell-based
T1 sequence (P04150 whole entry): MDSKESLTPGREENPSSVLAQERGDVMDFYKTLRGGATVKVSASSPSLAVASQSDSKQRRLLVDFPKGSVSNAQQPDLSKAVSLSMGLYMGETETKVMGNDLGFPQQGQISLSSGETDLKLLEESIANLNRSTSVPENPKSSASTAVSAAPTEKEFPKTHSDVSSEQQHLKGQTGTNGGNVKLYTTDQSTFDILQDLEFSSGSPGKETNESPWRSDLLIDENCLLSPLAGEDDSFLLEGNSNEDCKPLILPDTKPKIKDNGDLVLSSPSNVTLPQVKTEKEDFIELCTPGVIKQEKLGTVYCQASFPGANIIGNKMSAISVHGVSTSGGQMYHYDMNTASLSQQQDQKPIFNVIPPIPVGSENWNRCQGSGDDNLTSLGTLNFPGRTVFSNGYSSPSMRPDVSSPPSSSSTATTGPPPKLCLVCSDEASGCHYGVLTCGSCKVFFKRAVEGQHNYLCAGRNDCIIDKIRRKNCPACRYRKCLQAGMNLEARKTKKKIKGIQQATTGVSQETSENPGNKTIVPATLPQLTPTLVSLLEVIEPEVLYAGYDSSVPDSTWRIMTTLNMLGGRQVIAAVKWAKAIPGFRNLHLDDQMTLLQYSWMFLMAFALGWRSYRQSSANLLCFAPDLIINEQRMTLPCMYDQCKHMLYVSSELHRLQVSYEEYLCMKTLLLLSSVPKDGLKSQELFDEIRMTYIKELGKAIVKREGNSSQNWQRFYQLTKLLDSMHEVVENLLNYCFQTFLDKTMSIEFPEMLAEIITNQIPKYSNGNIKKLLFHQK

[1] = target: T2, Glucocorticoid receptor (Homo sapiens) (UniProt P04150); test: Transcriptional activation of Gal4(1-147) tagged glucocorticoid receptor in human HeLa cells at 1 uM by luciferase reporter gene assay relative to OxDex-AEEA; format: cell-based
T2 sequence (whole entry): T1 sequence (P04150 whole entry)

EC50 (Glucocorticoid receptor)	fold change (FC) [1]	Structure (SMILES)
33 nM	80	CC(C)C[C@]1(CCO)C[C@H](CNC(=O)COCCOCCNC(=O)[C@@]2(O)[C@H](C)C[C@H]3[C@@H]4CCC5=CC(=O)C=C[C@]5(C)[C@@]4(F)[C@@H](O)C[C@@]32C)ON1Cc1ccccc1
2500 nM	–	CC(C)C[C@](CCO)(C[C@H](O)CNC(=O)COCCOCCNC(=O)[C@@]1(O)[C@H](C)C[C@H]2[C@@H]3CCC4=CC(=O)C=C[C@]4(C)[C@@]3(F)[C@@H](O)C[C@@]21C)NCc1ccccc1
1860 nM	–	CC(C)C[C@@H](NC(=O)COCCOCCNC(=O)[C@@]1(O)[C@H](C)C[C@H]2[C@@H]3CCC4=CC(=O)C=C[C@]4(C)[C@@]3(F)[C@@H](O)C[C@@]21C)C(=O)N[C@H](CO)C(=O)N[C@H](Cc1ccccc1)C(N)=O
